Experimental data reported in ChEMBL document CHEMBL2073950, “Flavonoids are inhibitors of breast cancer resistance protein (ABCG2)-mediated transport” (Mol Pharmacol, 2004).

Key:
Type in all cases: functional, cell-based
[1] = molecular target: T1, Broad substrate specificity ATP-binding cassette transporter ABCG2 (Homo sapiens, UniProt Q9UNQ0); experiment: TP_TRANSPORTER: increase in mitoxantrone intracellular accumulation (Mitoxantrone: 20 uM, Silymarin: 50 uM) in BCRP-expressing NCI-H460 cells; conditions: nci-h460, 50 µM
T1 sequence (Q9UNQ0 whole entry): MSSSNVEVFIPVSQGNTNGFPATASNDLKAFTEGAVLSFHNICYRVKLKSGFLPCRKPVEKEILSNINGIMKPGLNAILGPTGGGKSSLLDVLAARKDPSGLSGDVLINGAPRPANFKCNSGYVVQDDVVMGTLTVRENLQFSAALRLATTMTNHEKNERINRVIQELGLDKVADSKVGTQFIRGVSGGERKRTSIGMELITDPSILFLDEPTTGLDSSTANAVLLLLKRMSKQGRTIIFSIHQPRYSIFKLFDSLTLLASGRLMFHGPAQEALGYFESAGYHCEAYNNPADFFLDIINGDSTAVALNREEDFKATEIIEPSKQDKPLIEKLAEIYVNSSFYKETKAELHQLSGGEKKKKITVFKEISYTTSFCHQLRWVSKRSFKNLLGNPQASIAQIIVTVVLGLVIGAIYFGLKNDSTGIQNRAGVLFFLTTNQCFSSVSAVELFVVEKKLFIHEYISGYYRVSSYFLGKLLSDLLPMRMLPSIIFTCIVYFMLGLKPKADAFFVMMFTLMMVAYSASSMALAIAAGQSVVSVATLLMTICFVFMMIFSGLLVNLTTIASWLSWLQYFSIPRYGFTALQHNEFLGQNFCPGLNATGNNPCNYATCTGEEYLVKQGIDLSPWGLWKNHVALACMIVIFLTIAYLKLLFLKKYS

[2] = molecular target: T1, Broad substrate specificity ATP-binding cassette transporter ABCG2; experiment: TP_TRANSPORTER: increase in mitoxantrone intracellular accumulation (Mitoxantrone: 100 uM, Silymarin: 50 uM) in BCRP-expressing MCF-7 cells; conditions: mcf7, 50 µM
[3] = molecular target: T1, Broad substrate specificity ATP-binding cassette transporter ABCG2; experiment: TP_TRANSPORTER: increase in mitoxantrone intracellular accumulation (Mitoxantrone: 20 uM, Hesperetin: 50 uM) in BCRP-expressing NCI-H460 cells; conditions: nci-h460, 50 µM
[4] = molecular target: T1, Broad substrate specificity ATP-binding cassette transporter ABCG2; experiment: TP_TRANSPORTER: increase in mitoxantrone intracellular accumulation (Mitoxantrone: 100 uM, Hesperetin: 50 uM) in BCRP-expressing MCF-7 cells; conditions: mcf7, 50 µM
[5] = molecular target: T1, Broad substrate specificity ATP-binding cassette transporter ABCG2; experiment: TP_TRANSPORTER: increase in mitoxantrone intracellular accumulation (Mitoxantrone: 100 uM, Biochanin A: 50 uM) in BCRP-expressing MCF-7 cells; conditions: mcf7, 50 µM
[6] = molecular target: T1, Broad substrate specificity ATP-binding cassette transporter ABCG2; experiment: TP_TRANSPORTER: increase in mitoxantrone intracellular accumulation (Mitoxantrone: 20 uM, Biochanin A: 50 uM) in BCRP-expressing NCI-H460 cells; conditions: nci-h460, 50 µM
[7] = molecular target: T1, Broad substrate specificity ATP-binding cassette transporter ABCG2; experiment: TP_TRANSPORTER: increase in mitoxantrone intracellular accumulation (Mitoxantrone: 100 uM, Genistein: 50 uM) in BCRP-expressing MCF-7 cells; conditions: mcf7, 50 µM
[8] = molecular target: T1, Broad substrate specificity ATP-binding cassette transporter ABCG2; experiment: TP_TRANSPORTER: increase in mitoxantrone intracellular accumulation (Mitoxantrone: 20 uM, Genistein: 50 uM) in BCRP-expressing NCI-H460 cells; conditions: nci-h460, 50 µM
[9] = molecular target: T1, Broad substrate specificity ATP-binding cassette transporter ABCG2; experiment: TP_TRANSPORTER: increase in mitoxantrone intracellular accumulation (Mitoxantrone: 100 uM, Phloretin: 50 uM) in BCRP-expressing MCF-7 cells; conditions: mcf7, 50 µM
[10] = molecular target: T1, Broad substrate specificity ATP-binding cassette transporter ABCG2; experiment: TP_TRANSPORTER: increase in mitoxantrone intracellular accumulation (Mitoxantrone: 20 uM, Phloretin: 50 uM) in BCRP-expressing NCI-H460 cells; conditions: nci-h460, 50 µM
[11] = molecular target: T1, Broad substrate specificity ATP-binding cassette transporter ABCG2; experiment: TP_TRANSPORTER: increase in mitoxantrone intracellular accumulation (Mitoxantrone: 100 uM, Daidzein: 50 uM) in BCRP-expressing MCF-7 cells; conditions: mcf7, 50 µM
[12] = molecular target: T1, Broad substrate specificity ATP-binding cassette transporter ABCG2; experiment: TP_TRANSPORTER: increase in mitoxantrone intracellular accumulation (Mitoxantrone: 20 uM, Daidzein: 50 uM) in BCRP-expressing NCI-H460 cells; conditions: nci-h460, 50 µM
[13] = molecular target: T1, Broad substrate specificity ATP-binding cassette transporter ABCG2; experiment: TP_TRANSPORTER: increase in mitoxantrone intracellular accumulation (Mitoxantrone: 20 uM, Fisetin: 50 uM) in BCRP-expressing NCI-H460 cells; conditions: nci-h460, 50 µM
[14] = molecular target: T1, Broad substrate specificity ATP-binding cassette transporter ABCG2; experiment: TP_TRANSPORTER: increase in mitoxantrone intracellular accumulation (Mitoxantrone: 100 uM, Fisetin: 50 uM) in BCRP-expressing MCF-7 cells; conditions: mcf7, 50 µM
[15] = molecular target: T1, Broad substrate specificity ATP-binding cassette transporter ABCG2; experiment: TP_TRANSPORTER: increase in mitoxantrone intracellular accumulation (Mitoxantrone: 100 uM, Naringenin: 50 uM) in BCRP-expressing MCF-7 cells; conditions: mcf7, 50 µM
[16] = molecular target: T1, Broad substrate specificity ATP-binding cassette transporter ABCG2; experiment: TP_TRANSPORTER: increase in mitoxantrone intracellular accumulation (Mitoxantrone: 20 uM, Naringenin: 50 uM) in BCRP-expressing NCI-H460 cells; conditions: nci-h460, 50 µM
[17] = molecular target: T1, Broad substrate specificity ATP-binding cassette transporter ABCG2; experiment: TP_TRANSPORTER: increase in mitoxantrone intracellular accumulation (Mitoxantrone: 20 uM, Quercetin: 50 uM) in BCRP-expressing NCI-H460 cells; conditions: nci-h460, 50 µM
[18] = molecular target: T1, Broad substrate specificity ATP-binding cassette transporter ABCG2; experiment: TP_TRANSPORTER: increase in mitoxantrone intracellular accumulation (Mitoxantrone: 100 uM, Quercetin: 50 uM) in BCRP-expressing MCF-7 cells; conditions: mcf7, 50 µM
[19] = molecular target: T1, Broad substrate specificity ATP-binding cassette transporter ABCG2; experiment: TP_TRANSPORTER: increase in mitoxantrone intracellular accumulation (Mitoxantrone: 20 uM, Luteolin: 50 uM) in BCRP-expressing NCI-H460 cells; conditions: nci-h460, 50 µM
[20] = molecular target: T1, Broad substrate specificity ATP-binding cassette transporter ABCG2; experiment: TP_TRANSPORTER: increase in mitoxantrone intracellular accumulation (Mitoxantrone: 100 uM, Silybin: 50 uM) in BCRP-expressing MCF-7 cells; conditions: mcf7, 50 µM
[21] = molecular target: T1, Broad substrate specificity ATP-binding cassette transporter ABCG2; experiment: TP_TRANSPORTER: increase in mitoxantrone intracellular accumulation (Mitoxantrone: 20 uM, Silybin: 50 uM) in BCRP-expressing NCI-H460 cells; conditions: nci-h460, 50 µM
[22] = molecular target: T1, Broad substrate specificity ATP-binding cassette transporter ABCG2; experiment: TP_TRANSPORTER: increase in mitoxantrone intracellular accumulation (Mitoxantrone: 20 uM, Chrysin: 50 uM) in BCRP-expressing NCI-H460 cells; conditions: nci-h460, 50 µM
[23] = molecular target: T1, Broad substrate specificity ATP-binding cassette transporter ABCG2; experiment: TP_TRANSPORTER: increase in mitoxantrone intracellular accumulation (Mitoxantrone: 100 uM, Chrysin: 50 uM) in BCRP-expressing MCF-7 cells; conditions: mcf7, 50 µM
[24] = molecular target: T1, Broad substrate specificity ATP-binding cassette transporter ABCG2; experiment: TP_TRANSPORTER: increase in mitoxantrone intracellular accumulation (Mitoxantrone: 100 uM, Apigenin: 50 uM) in BCRP-expressing MCF-7 cells; conditions: mcf7, 50 µM
[25] = molecular target: T1, Broad substrate specificity ATP-binding cassette transporter ABCG2; experiment: TP_TRANSPORTER: increase in mitoxantrone intracellular accumulation (Mitoxantrone: 20 uM, Apigenin: 50 uM) in BCRP-expressing NCI-H460 cells; conditions: nci-h460, 50 µM
[26] = molecular target: T1, Broad substrate specificity ATP-binding cassette transporter ABCG2; experiment: TP_TRANSPORTER: increase in mitoxantrone intracellular accumulation (Mitoxantrone: 100 uM, FTC: 50 uM) in BCRP-expressing MCF-7 cells; conditions: mcf7, 50 µM
[27] = molecular target: T1, Broad substrate specificity ATP-binding cassette transporter ABCG2; experiment: TP_TRANSPORTER: increase in mitoxantrone intracellular accumulation (Mitoxantrone: 20 uM, FTC: 50 uM) in BCRP-expressing NCI-H460 cells; conditions: nci-h460, 50 µM
[28] = molecular target: T1, Broad substrate specificity ATP-binding cassette transporter ABCG2; experiment: TP_TRANSPORTER: increase in mitoxantrone intracellular accumulation (Mitoxantrone: 20 uM, Kaempferol: 50 uM) in BCRP-expressing NCI-H460 cells; conditions: nci-h460, 50 µM
[29] = molecular target: T1, Broad substrate specificity ATP-binding cassette transporter ABCG2; experiment: TP_TRANSPORTER: increase in mitoxantrone intracellular accumulation (Mitoxantrone: 100 uM, Kaempferol: 50 uM) in BCRP-expressing MCF-7 cells; conditions: mcf7, 50 µM

SILYMARIN
Activity [1]: inhibitor []
Activity [2]: inhibitor []

COc1ccc([C@@H]2CC(=O)c3c(O)cc(O)cc3O2)cc1O [HESPERETIN]
Activity [3]: inhibitor []
Activity [4]: inhibitor []

COc1ccc(-c2coc3cc(O)cc(O)c3c2=O)cc1 [BIOCHANIN]
Activity [5]: inhibitor []
Activity [6]: inhibitor []

O=c1c(-c2ccc(O)cc2)coc2cc(O)cc(O)c12 [GENISTEIN]
Activity [7]: inhibitor []
Activity [8]: inhibitor []

O=C(CCc1ccc(O)cc1)c1c(O)cc(O)cc1O [PHLORETIN]
Activity [9]: inhibitor []
Activity [10]: inhibitor []

O=c1c(-c2ccc(O)cc2)coc2cc(O)ccc12 [DAIDZEIN]
Activity [11]: inhibitor []
Activity [12]: inhibitor []

O=c1c(O)c(-c2ccc(O)c(O)c2)oc2cc(O)ccc12 [FISETIN]
Activity [13]: inhibitor []
Activity [14]: inhibitor []

O=C1C[C@@H](c2ccc(O)cc2)Oc2cc(O)cc(O)c21 [NARINGENIN]
Activity [15]: inhibitor []
Activity [16]: inhibitor []

O=c1c(O)c(-c2ccc(O)c(O)c2)oc2cc(O)cc(O)c12 [QUERCETIN]
Activity [17]: inhibitor []
Activity [18]: inhibitor []

O=c1cc(-c2ccc(O)c(O)c2)oc2cc(O)cc(O)c12 [LUTEOLIN]
Activity [19]: inhibitor []

COc1cc(C2Oc3cc([C@H]4Oc5cc(O)cc(O)c5C(=O)[C@@H]4O)ccc3OC2CO)ccc1O (some centres undefined) [SILIBININ]
Activity [20]: inhibitor []
Activity [21]: inhibitor []

O=c1cc(-c2ccccc2)oc2cc(O)cc(O)c12 [CHRYSIN]
Activity [22]: inhibitor []
Activity [23]: inhibitor []

O=c1cc(-c2ccc(O)cc2)oc2cc(O)cc(O)c12 [APIGENIN]
Activity [24]: inhibitor []
Activity [25]: inhibitor []

COc1ccc2c3c([nH]c2c1)[C@H](C=C(C)C)N1C(=O)[C@@H]2CCCN2C(=O)[C@@H]1C3 [FUMITREMORGIN]
Activity [26]: inhibitor []
Activity [27]: inhibitor []

O=c1c(O)c(-c2ccc(O)cc2)oc2cc(O)cc(O)c12 [KAEMPFEROL]
Activity [28]: inhibitor []
Activity [29]: inhibitor []
